Test results as given in patent US20260356830A1, “COMPOUNDS FOR MODULATING RET PROTEIN” (Bristol-Myers Squibb Company, priority 2022, published 2026).

Molecular target: T1, CCDC6-RET (Homo sapiens, UniProt P07949+Q16204+Q96SW2)
T1 construct: CCDC6 (natural N-terminal fusion partner, UniProt Q16204); endogenous in cells; host or cells: TPC-1 (parental, papillary thyroid carcinoma)
Assay: Cellular RET degradation, AlphaLISA, TPC-1 cell line
Type: cell-based
Conditions: for Dmax: TPC1, human, 24 h, read-out: Cell Density TPC-1/CCDC6-RET Ymax %; for DC50: read-out: Cell Density TPC-1/CCDC6-RET DC50, half-maximal degradation concentration, TPC-1 (CCDC6-RET), 24 hrs
In short: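 Luminescent AlphaLISA read of RET abundance in lysates after 24 h compound exposure (37 °C, 2% FBS DMEM) of CCDC6-RET-bearing TPC-1 cells. % degradation relative to DMSO (high) and media (low) controls, fitted to 4-parameter logistic curve for DC50 and Ymax.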

T1 sequence (Q16204+P07949 fused): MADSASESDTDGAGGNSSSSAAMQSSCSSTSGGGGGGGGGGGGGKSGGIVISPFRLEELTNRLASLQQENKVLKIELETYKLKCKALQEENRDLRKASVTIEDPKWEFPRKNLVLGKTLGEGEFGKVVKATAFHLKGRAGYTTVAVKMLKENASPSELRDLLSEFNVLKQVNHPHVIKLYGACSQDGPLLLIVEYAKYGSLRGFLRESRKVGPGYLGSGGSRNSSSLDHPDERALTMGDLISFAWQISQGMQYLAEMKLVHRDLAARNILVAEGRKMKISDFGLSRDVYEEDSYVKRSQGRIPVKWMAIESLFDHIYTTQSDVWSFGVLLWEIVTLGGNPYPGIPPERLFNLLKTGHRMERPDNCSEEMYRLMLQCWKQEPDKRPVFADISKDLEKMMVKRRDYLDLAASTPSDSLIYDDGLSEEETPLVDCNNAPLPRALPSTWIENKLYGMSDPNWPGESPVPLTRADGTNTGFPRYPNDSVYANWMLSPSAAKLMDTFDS
T1 sequence (Q96SW2 whole entry, the tested form may be a part): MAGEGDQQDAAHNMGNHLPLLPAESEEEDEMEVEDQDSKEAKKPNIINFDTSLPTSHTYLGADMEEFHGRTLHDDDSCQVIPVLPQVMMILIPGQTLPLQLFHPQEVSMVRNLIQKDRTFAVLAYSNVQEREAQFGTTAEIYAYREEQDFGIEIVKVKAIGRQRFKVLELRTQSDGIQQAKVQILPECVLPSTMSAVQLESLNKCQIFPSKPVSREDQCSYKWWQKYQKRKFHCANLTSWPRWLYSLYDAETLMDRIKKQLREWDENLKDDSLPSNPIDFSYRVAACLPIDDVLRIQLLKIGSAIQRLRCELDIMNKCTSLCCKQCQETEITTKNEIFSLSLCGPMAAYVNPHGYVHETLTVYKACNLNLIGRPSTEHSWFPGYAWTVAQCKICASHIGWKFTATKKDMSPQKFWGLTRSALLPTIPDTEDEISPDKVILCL
T1 sequence (Q16531 whole entry partner, the tested form may be a part): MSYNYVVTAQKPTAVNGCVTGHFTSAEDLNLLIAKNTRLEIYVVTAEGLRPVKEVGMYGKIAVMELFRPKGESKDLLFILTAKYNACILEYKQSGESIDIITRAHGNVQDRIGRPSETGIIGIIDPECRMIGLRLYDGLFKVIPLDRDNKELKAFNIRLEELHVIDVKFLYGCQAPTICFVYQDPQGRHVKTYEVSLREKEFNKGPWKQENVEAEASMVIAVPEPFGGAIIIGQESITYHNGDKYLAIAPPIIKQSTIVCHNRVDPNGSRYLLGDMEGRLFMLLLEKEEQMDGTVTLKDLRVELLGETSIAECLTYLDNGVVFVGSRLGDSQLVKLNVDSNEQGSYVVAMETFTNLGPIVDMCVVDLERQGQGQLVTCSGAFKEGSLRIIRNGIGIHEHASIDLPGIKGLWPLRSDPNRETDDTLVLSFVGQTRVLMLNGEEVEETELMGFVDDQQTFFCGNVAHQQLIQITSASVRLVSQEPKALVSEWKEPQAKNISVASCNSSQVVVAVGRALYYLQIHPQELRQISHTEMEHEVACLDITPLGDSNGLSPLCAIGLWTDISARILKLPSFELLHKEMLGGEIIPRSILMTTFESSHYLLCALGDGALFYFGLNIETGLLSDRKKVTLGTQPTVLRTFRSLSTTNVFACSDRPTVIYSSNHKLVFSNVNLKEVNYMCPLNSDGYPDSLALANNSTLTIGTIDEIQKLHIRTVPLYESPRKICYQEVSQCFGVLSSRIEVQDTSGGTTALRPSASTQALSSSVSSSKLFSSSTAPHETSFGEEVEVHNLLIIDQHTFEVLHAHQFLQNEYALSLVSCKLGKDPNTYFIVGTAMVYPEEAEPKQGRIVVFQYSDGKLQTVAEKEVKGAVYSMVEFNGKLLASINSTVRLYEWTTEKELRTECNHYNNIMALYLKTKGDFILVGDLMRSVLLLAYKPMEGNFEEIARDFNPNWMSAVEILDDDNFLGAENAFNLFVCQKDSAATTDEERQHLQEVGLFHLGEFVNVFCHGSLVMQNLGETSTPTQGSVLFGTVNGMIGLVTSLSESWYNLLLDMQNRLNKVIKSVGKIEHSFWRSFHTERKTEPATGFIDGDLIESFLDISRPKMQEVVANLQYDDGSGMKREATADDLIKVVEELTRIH

| Dmax | DC50 | Structure (SMILES) |
| --- | --- | --- |
| 60 to 90% | 2 to 10 nM | CCOc1cc(-c2ccc(N3CCC(CN4CCN(C5CN(C(=O)Cc6ccc7c(c6)CN(C6CCC(=O)NC6=O)C7=O)C5)CC4)(NC(=O)c4cc(F)ccc4F)CC3)nc2)c2c(C#N)cnn2c1 (stereo not drawn) [Example 62, N-[1-(5-{3-cyano-6-ethoxypyrazolo[1,5-a]pyridin-4-yl}pyridin-2-yl)-4-{[4-(1-{2-[2-(2,6-dioxopiperidin-3-yl)-1-oxo-2,3-dihydro-1H-isoindol-5-yl]acetyl}azetidin-3-yl)piperazin-1-yl]methyl}piperidin-4-yl]-2,5-difluorobenzamide] |
| 60 to 90% | 2 to 10 nM | CCOc1cc(-c2ccc(N3CCC(CN4CCN(C5CN(C(=O)c6ccc7c(c6)CN(C6CCC(=O)NC6=O)C7=O)C5)CC4)(NC(=O)c4cc(F)ccc4F)CC3)nc2)c2c(C#N)cnn2c1 (stereo not drawn) [Example 63, N-[1-(5-{3-cyano-6-ethoxypyrazolo[1,5-a]pyridin-4-yl}pyridin-2-yl)-4-[(4-{1-[2-(2,6-dioxopiperidin-3-yl)-1-oxo-2,3-dihydro-1H-isoindole-5-carbonyl]azetidin-3-yl}piperazin-1-yl)methyl]piperidin-4-yl]-2,5-difluorobenzamide] |
| 60 to 90% | 100 to 2000 nM | CCOc1cc(-c2ccc(N3CCC(CN(C(=O)CCCCN4CCC(c5ccc6c(c5)C(=O)N(C5CCC(=O)NC5=O)C6)CC4)C(C)C)(NC(=O)c4cc(F)ccc4F)CC3)nc2)c2c(C#N)cnn2c1 (stereo not drawn) [Example 170, N-[1-(5-{3-cyano-6-ethoxypyrazolo[1,5-a]pyridin-4-yl}pyridin-2-yl)-4-[(5-{4-[2-(2,6-dioxopiperidin-3-yl)-3-oxo-2,3-dihydro-1H-isoindol-5-yl]piperidin-1-yl}-N-(propan-2-yl)pentanamido)methyl]piperidin-4-yl]-2,5-difluorobenzamide] |
| > 90% | < 2 nM | CCOc1cc(-c2ccc(N3CCC(CN4CCN(CC5CCN(C(=O)Cc6ccc7c(c6)C(=O)N(C6CCC(=O)NC6=O)C7)CC5)CC4)(NC(=O)c4cc(F)ccc4F)CC3)nc2)c2c(C#N)cnn2c1 (stereo not drawn) [Example 113, N-[1-(5-{3-cyano-6-ethoxypyrazolo[1,5-a]pyridin-4-yl}pyridin-2-yl)-4-({4-[(1-{2-[2-(2,6-dioxopiperidin-3-yl)-3-oxo-2,3-dihydro-1H-isoindol-5-yl]acetyl}piperidin-4-yl)methyl]piperazin-1-yl}methyl)piperidin-4-yl]-2,5-difluorobenzamide] |
| > 90% | < 2 nM | CCOc1cc(-c2ccc(N3CCC(CN4CCC(CN5CCN(c6ccc7c(c6)CN(C6CCC(=O)NC6=O)C7=O)CC5)CC4)(NC(=O)c4cc(F)ccc4F)CC3)nc2)c2c(C#N)cnn2c1 (stereo not drawn) [Example 69, N-(1-(5-(3-cyano-6-ethoxypyrazolo[1,5-a]pyridin-4-yl)pyridin-2-yl)-4-((4-((4-(2-(2,6-dioxopiperidin-3-yl)-1-oxoisoindolin-5-yl)piperazin-1-yl)methyl)piperidin-1-yl)methyl)piperidin-4-yl)-2,5-difluorobenzamide] |
| > 90% | < 2 nM | CCOc1cc(-c2ccc(N3CCC(CN4CCN(C(=O)CCCN5CCN(c6ccc7c(N8CCC(=O)NC8=O)nn(C)c7c6)CC5)CC4)(NC(=O)c4cc(F)ccc4F)CC3)nc2)c2c(C#N)cnn2c1 [Example 43, N-(1-(5-(3-cyano-6-ethoxypyrazolo[1,5-a]pyridin-4-yl)pyridin-2-yl)-4-((4-(4-(4-(3-(2,4-dioxotetrahydropyrimidin-1(2H)-yl)-1-methyl-1H-indazol-6-yl)piperazin-1-yl)butanoyl)piperazin-1-yl)methyl)piperidin-4-yl)-2,5-difluorobenzamide] |

Further lines, the compound ahead of its results:

| Structure (SMILES) | Dmax | DC50 |
| --- | --- | --- |
| CCOc1cc(-c2ccc(N3CCC(CN4CCN(CC5CCN(C(=O)c6ccc7c(c6)C(=O)N(C6CCC(=O)NC6=O)C7)CC5)CC4)(NC(=O)c4cc(F)ccc4F)CC3)nc2)c2c(C#N)cnn2c1 (stereo not drawn) [Example 110, N-[1-(5-{3-cyano-6-ethoxypyrazolo[1,5-a]pyridin-4-yl}pyridin-2-yl)-4-{[4-({1-[2-(2,6-dioxopiperidin-3-yl)-3-oxo-2,3-dihydro-1H-isoindole-5-carbonyl]piperidin-4-yl}methyl)piperazin-1-yl]methyl}piperidin-4-yl]-2,5-difluorobenzamide] | 60 to 90% | 2 to 10 nM |
| CCOc1cc(-c2ccc(N3CCC(CN4CCN(CC5CCN(C(=O)Cc6cccc7c6CN(C6CCC(=O)NC6=O)C7=O)CC5)CC4)(NC(=O)c4cc(F)ccc4F)CC3)nc2)c2c(C#N)cnn2c1 (stereo not drawn) [Example 111, N-[1-(5-{3-cyano-6-ethoxypyrazolo[1,5-a]pyridin-4-yl}pyridin-2-yl)-4-({4-[(1-{2-[2-(2,6-dioxopiperidin-3-yl)-1-oxo-2,3-dihydro-1H-isoindol-4-yl]acetyl}piperidin-4-yl)methyl]piperazin-1-yl}methyl)piperidin-4-yl]-2,5-difluorobenzamide] | 60 to 90% | 2 to 10 nM |
| CCOc1cc(-c2ccc(N3CCC(CN4CCN(C5CN(C(=O)COc6ccc7c(c6)CN(C6CCC(=O)NC6=O)C7=O)C5)CC4)(NC(=O)c4cc(F)ccc4F)CC3)nc2)c2c(C#N)cnn2c1 (stereo not drawn) [Example 65, N-[1-(5-{3-cyano-6-ethoxypyrazolo[1,5-a]pyridin-4-yl}pyridin-2-yl)-4-({4-[1-(2-{[2-(2,6-dioxopiperidin-3-yl)-1-oxo-2,3-dihydro-1H-isoindol-5-yl]oxy}acetyl)azetidin-3-yl]piperazin-1-yl}methyl)piperidin-4-yl]-2,5-difluorobenzamide] | 60 to 90% | 2 to 10 nM |
| CCOc1cc(-c2ccc(N3CCC(CN4CCN(C(=O)CCCCN5CCN(c6ccc7c(N8CCC(=O)NC8=O)nn(C)c7c6)CC5)CC4)(NC(=O)c4cc(F)ccc4F)CC3)nc2)c2c(C#N)cnn2c1 [Example 40, N-(1-(5-(3-cyano-6-ethoxypyrazolo[1,5-a]pyridin-4-yl)pyridin-2-yl)-4-((4-(5-(4-(3-(2,4-dioxotetrahydropyrimidin-1(2H)-yl)-1-methyl-1H-indazol-6-yl)piperazin-1-yl)pentanoyl)piperazin-1-yl)methyl)piperidin-4-yl)-2,5-difluorobenzamide] | > 90% | 2 to 10 nM |
| CCOc1cc(-c2ccc(N3CCC(CN4CCN(C(=O)CCCCCCCCNc5cccc(NC6CCC(=O)NC6=O)c5)CC4)(NC(=O)c4cc(F)ccc4F)CC3)nc2)c2c(C#N)cnn2c1 (stereo not drawn) [Example 23, N-[1-(5-{3-cyano-6-ethoxypyrazolo[1,5-a]pyridin-4-yl}pyridin-2-yl)-4-({4-[9-({3-[(2,6-dioxopiperidin-3-yl)amino]phenyl}amino)nonanoyl]piperazin-1-yl}methyl)piperidin-4-yl]-2,5-difluorobenzamide] | > 90% | 10 to 100 nM |
| CCOc1cc(-c2ccc(N3CCC(NC(=O)c4cc(F)ccc4F)(C(=O)NCCCCCCNc4cccc5c(N6CCC(=O)NC6=O)nn(C)c45)CC3)nc2)c2c(C#N)cnn2c1 [Example 149, 1-(5-{3-cyano-6-ethoxypyrazolo[1,5-a]pyridin-4-yl}pyridin-2-yl)-4-(2,5-difluorobenzamido)-N-(6-{[3-(2,4-dioxo-1,3-diazinan-1-yl)-1-methyl-1H-indazol-7-yl]amino}hexyl)piperidine-4-carboxamide] | > 90% | < 2 nM |
